Like-named read-outs stand apart in the source and are kept apart here.
Key:
[1] = system: HGC27 (Human Gastric Cancer Cell); experiment: Bioactivity assay for HGC27 cell growth inhibition (CellTiter-Glo); type: cell-based; conditions: read-out: HGC27 CTG IC50
Experimental: This detection method is used to evaluate the biological activity of the compounds of the present disclosure at the cellular level.
(§1) HGC27 cells (purchased from the Chinese Academy of Sciences) were harvested, resuspended in complete medium and adjusted to a cell density of 0.2×10^6 cells per ml. The cell suspension was added to a 96-well plate at a volume of 100 μL per well and cultured overnight in a 37° C., 5% CO2 incubator. Prepare the test compound and add it to the cell plate so that the highest concentration of the compound is 10 μM. Set 8 concentration points according to 3-fold dilution. At the same time, 100% inhibition control wells were set, that is, wells with no cells but only an equal volume of complete culture medium; and 0% inhibition control wells, that is, wells with cells added with 0.1% DMSO. The cell plate was cultured at 37° C. and 5% CO2 for 24 hours. Remove the cell culture plate and add 25 μl CellTiter-Glo® Luminescent Cell Viability Reagent (promega cat #G7573) to each well. Incubate in the dark for 10 minutes and then transfer 100 μL to a white plate and use Molecular Devices SpectraMax i3 to detect chemiluminescence. The inhibition rate was calculated using the following formula for data processing: compound inhibition rate=(0% inhibition control well signal−compound treatment well signal)/(0% inhibition control well signal−100% inhibition control well signal)*100%. The calculated data were fitted with four parameters using GraphPad Prism software and the corresponding IC50 was calculated.

[2] = system: NCI-N87 (Human Gastric Cancer Cell); experiment: Bioactivity detection of NCI-N87 cell growth inhibition (CellTiter-Glo); type: cell-based; conditions: NCI-N87 cells, 72 hours, highest concentration 10 μM, read-out: N87 CTG IC50
Experimental: This detection method is used to evaluate the biological activity of the compounds described in this disclosure at the cellular level.
as §1, with “NCI-N87” for “HGC27”, “0.1×10^6” for “0.2×10^6”, “72” for “24”, “CellTiter-Glo” for “CellTiter-Glo®”, “signal)[…].” for “signal)*100%.”

[3] = HGC-27, HGC27 cells, 24 hours, CellTiter-Glo, highest concentration 10 μM

Row | SMILES | IC50 [1, 3] | IC50 [2] | IC50 ([1]; HGC-27, 24 h)
1 | FC(F)(F)c1cnc(NCc2ccc3c(c2)[nH]c2cccnc23)nc1OC1COC1 [Compound 2] | 139 nM | 26 nM | –
2 | Cn1c2cc(CNc3ncc(C(F)(F)F)c(OC4COC4)n3)ccc2c2ncccc21 [Compound 3] | 342 nM | – | –
3 | CC[C@@H](Nc1nc(NCc2ccc3c(c2)[nH]c2cccnc23)ncc1C(F)(F)F)C(N)=O [Compound 4] | 238 nM | – | –
4 | Cc1ccnc2c1[nH]c1cc(CNc3ncc(C(F)(F)F)c(OC4COC4)n3)ccc12 [Compound 6] | 145 nM | – | –
5 | Cc1ccc2[nH]c3cc(CNc4ncc(C(F)(F)F)c(OC5COC5)n4)ccc3c2n1 [Compound 8] | 308 nM | – | –
6 | FC(F)(F)c1cnc(NCc2ccc3c(c2)oc2cccnc23)nc1OC1COC1 [Compound 9] | 292 nM | – | –
7 | FC(F)(F)c1cnc(NCc2ccc3c(n2)[nH]c2cccnc23)nc1OC1COC1 [Compound 10] | 225 nM | – | –
8 | Cc1cc2c(cc1CNc1ncc(C(F)(F)F)c(OC3COC3)n1)[nH]c1cccnc12 [Compound 16] | 520 nM | – | –
9 | FC(F)(F)c1cnc(NCc2cc3[nH]c4cccnc4c3s2)nc1OC1COC1 [Compound 20] | 454 nM | – | –
10 | OCc1cccc2c3ccc(CNc4ncc(C(F)(F)F)c(OC5COC5)n4)cc3nn12 [Compound 26] | 387 nM | – | –
11 | NCc1cccc2c3ccc(CNc4ncc(C(F)(F)F)c(OC5COC5)n4)cc3nn12 [Compound 28] | 313 nM | – | –
12 | FC(F)(F)c1cnc(NCc2ccc3c(c2)[nH]c2scnc23)nc1OC1COC1 [Compound 29] | 374 nM | – | –
13 | COc1ccnc2c1[nH]c1cc(CNc3ncc(C(F)(F)F)c(OC4COC4)n3)ccc12 [Compound 35] | 120 nM | – | –
14 | FC(F)(F)c1cnc(NCc2ccc3c(c2)nn2cccnc32)nc1OC1COC1 [Compound 36] | – | – | 133 nM
15 | CC[C@@H](Nc1nc(NCc2ccc3c(c2)nn2c(CO)ccnc32)ncc1C(F)(F)F)C(N)=O [Compound 40] | 121 nM | 7 nM | –
16 | FC(F)(F)c1cnc(NCc2ccc3c(c2)[nH]c2ncccc23)nc1OC1COC1 [Compound 45] | 89 nM | – | –
17 | CC[C@@H](Nc1nc(NCc2ccc3c(c2)[nH]c2c(CNC(C)=O)ccnc23)ncc1C(F)(F)F)C(N)=O [Compound 47] | 266 nM | – | –
18 | FC(F)(F)c1cnc(NCc2ccc3c(c2)nn2ccncc32)nc1OC1COC1 [Compound 49] | – | – | 510 nM
19 | CC(C)[C@@H](Nc1nc(NCc2ccc3c(c2)nn2c(CO)ccnc32)ncc1C(F)(F)F)C(N)=O [Compound 50] | 257 nM | – | –
20 | FC(F)(F)c1cnc(NCc2ccc3c(c2)nc2cccnn23)nc1OC1COC1 [Compound 51] | 145 nM | – | –
21 | CC(C)(C)[C@@H](Nc1nc(NCc2ccc3c(c2)[nH]c2c(CN)ccnc23)ncc1C(F)(F)F)C(N)=O [Compound 55] | – | 19 nM | 26 nM
22 | CC(C)(O)[C@@H](Nc1nc(NCc2ccc3c(c2)[nH]c2c(CN)ccnc23)ncc1C(F)(F)F)C(N)=O [Compound 58] | 114 nM | 58 nM | –
23 | CC[C@@H](Nc1nc(NCc2ccc3c(c2)[nH]c2c(C)ccnc23)ncc1C(F)(F)F)C(N)=O [Compound 70] | 112 nM | 13 nM | –
24 | N#Cc1ccnc2c3ccc(CNc4ncc(C(F)(F)F)c(N[C@@H]5CNCC[C@@H]5O)n4)cc3nn12 [Compound 96] | 110 nM | – | –
25 | CC[C@@H](Nc1nc(NCc2ccc3c(c2)[nH]c2c(CO)ccnc23)ncc1C(F)(F)F)C(=O)NC [Compound 99] | – | 117 nM | –
26 | CC[C@@H](Nc1nc(NCc2ccc3c(c2)[nH]c2c(CO)ccnc23)ncc1C(F)(F)F)C(=O)N(C)C [Compound 100] | – | 112 nM | –

Continued by falling IC50 [1, 3], values first:

Row | IC50 [1, 3] | IC50 [2] | SMILES | IC50 ([1]; HGC-27, 24 h)
27 | 80 nM | – | N#Cc1cccc2c3ccc(CNc4ncc(C(F)(F)F)c(OC5COC5)n4)cc3nn12 [Compound 24] | –
28 | 79 nM | – | C[C@@H](Nc1nc(NCc2ccc3c(c2)[nH]c2c(CO)ccnc23)ncc1C(F)(F)F)C(N)=O [Compound 46] | –
29 | 75 nM | – | FC(F)(F)c1cnc(NCc2ccc3c(c2)[nH]c2ncsc23)nc1OC1COC1 [Compound 14] | –
30 | 70 nM | 48 nM | CC[C@@H](Nc1nc(NCc2ccc3c(c2)nn2c(CN)ccnc32)ncc1C(F)(F)F)C(N)=O [Compound 62] | –
31 | 68 nM | 8.6 nM | CO[C@@H](C)[C@H](C#N)Nc1nc(NCc2ccc3c(c2)[nH]c2c(CO)ccnc23)ncc1C(F)(F)F [Compound 71] | –
32 | 62 nM | – | C[C@@H](O)[C@@H](C)Oc1nc(NCc2ccc3c(c2)[nH]c2cccnc23)ncc1C(F)(F)F [Compound 11] | –
33 | 62 nM | – | NCc1ccnc2c1[nH]c1cc(CNc3ncc(C(F)(F)F)c(OC4COC4)n3)ccc12 [Compound 19] | –
34 | 54 nM | 9 nM | OCc1ccnc2c3ccc(CNc4ncc(C(F)(F)F)c(OC5COC5)n4)cc3nn12 [Compound 39] | –
35 | 53 nM | 20 nM | CC(C)[C@@H](Nc1nc(NCc2ccc3c(c2)[nH]c2c(CN)ccnc23)ncc1C(F)(F)F)C(N)=O [Compound 48] | –
36 | 48 nM | – | N#Cc1ccnc2c1[nH]c1cc(CNc3ncc(C(F)(F)F)c(N[C@@H]4CN(C(=O)CO)CC[C@@H]4O)n3)ccc12 [Compound 92] | –
37 | 43 nM | – | OCc1ccnc2c1[nH]c1cc(CNc3ncc(C(F)(F)F)c(OC4COC4)n3)ccc12 [Compound 7] | –
38 | 41 nM | 13 nM | C[C@@H](O)[C@@H](CO)Nc1nc(NCc2ccc3c(c2)[nH]c2c(CO)ccnc23)ncc1C(F)(F)F [Compound 13] | –
39 | 39 nM | 32 nM | NCc1ccnc2c1[nH]c1cc(CNc3ncc(C(F)(F)F)c(N[C@@H](C(N)=O)C4CCCC4)n3)ccc12 [Compound 52] | –
40 | 36 nM | 1 nM | Cc1ccnc2c1[nH]c1cc(CNc3ncc(C(F)(F)F)c(N[C@H](C)[C@@H](C)O)n3)ccc12 [Compound 68] | –
41 | 32 nM | 10 nM | CC[C@@H](Nc1nc(NCc2ccc3c(c2)[nH]c2c(CN)ccnc23)ncc1C(F)(F)F)C(N)=O [Compound 33] | –
42 | 32 nM | 32 nM | CCC[C@@H](Nc1nc(NCc2ccc3c(c2)[nH]c2c(CN)ccnc23)ncc1C(F)(F)F)C(N)=O [Compound 54] | –
43 | 30 nM | – | C[C@@H](O)[C@@H](CO)Nc1nc(NCc2ccc3c(c2)[nH]c2cccnc23)ncc1C(F)(F)F [Compound 5] | –
44 | 29 nM | 48 nM | NCc1ccnc2c1[nH]c1cc(CNc3ncc(C(F)(F)F)c(N[C@H](CC4CC4)C(N)=O)n3)ccc12 [Compound 53] | –
45 | 25 nM | 30 nM | NCc1ccnc2c1[nH]c1cc(CNc3ncc(C(F)(F)F)c(N[C@@H](C(N)=O)C4CCC4)n3)ccc12 [Compound 56] | –
46 | 21 nM | – | C[C@@H](O)[C@@H](C)Oc1nc(NCc2ccc3c(c2)[nH]c2c(CN)ccnc23)ncc1C(F)(F)F [Compound 27] | –
47 | 20 nM | 13 nM | NCc1ccnc2c1[nH]c1cc(CNc3ncc(C(F)(F)F)c(N[C@@H](C(N)=O)C4CC4)n3)ccc12 [Compound 42] | –
48 | 20 nM | 15 nM | C[C@@H](O)[C@@H](C)Nc1nc(NCc2ccc3c(c2)nn2c(CN)ccnc32)ncc1C(F)(F)F [Compound 63] | –
49 | 14 nM | 11 nM | CO[C@@H](C)[C@@H](Nc1nc(NCc2ccc3c(c2)[nH]c2c(CN)ccnc23)ncc1C(F)(F)F)C(N)=O [Compound 57] | –
50 | 14 nM | 2.5 nM | CO[C@@H](C)[C@@H](Nc1nc(NCc2ccc3c(c2)[nH]c2c(C#N)ccnc23)ncc1C(F)(F)F)C(N)=O [Compound 67] | –
51 | 13 nM | – | CC[C@@H](Nc1nc(NCc2ccc3c(c2)[nH]c2c(CO)ccnc23)ncc1C(F)(F)F)[C@@H](C)O [Compound 23] | –
52 | 13 nM | 1.8 nM | C[C@@H](O)[C@@H](C)Nc1nc(NCc2ccc3c(c2)nn2c(CO)ccnc32)ncc1C(F)(F)F [Compound 60] | –
53 | 7 nM | 1.7 nM | C[C@@H](O)[C@@H](C)Nc1nc(NCc2ccc3c(c2)[nH]c2c(CN)ccnc23)ncc1C(F)(F)F [Compound 34] | –
54 | 6 nM | 3 nM | C[C@@H](O)[C@@H](CO)Nc1nc(NCc2ccc3c(c2)[nH]c2c(C#N)ccnc23)ncc1C(F)(F)F [Compound 73] | –

Reference: patent publication US20260209211A1, “CYCLIN K DEGRADER AND USE THEREOF” (ADLAI NORTYE BIOPHARMA CO., LTD., priority 2022, published 2026)
